SMILES strings stand for the structures.

For 15 compounds, DC50 results are on record in patent publication US20250302815A1, “PROTEIN TYROSINE PHOSPHATASE TARGETING LIGANDS” (CALICO LIFE SCIENCES LLC, priority 2021, published 2025).

The target of one assay is T1, PTPN2 (B16F10.4 cells) (Mus musculus, UniProt Q06180).
T1 construct: HiBiT; host or cells: B16F10.4
T1 sequence (Q06180 1-406): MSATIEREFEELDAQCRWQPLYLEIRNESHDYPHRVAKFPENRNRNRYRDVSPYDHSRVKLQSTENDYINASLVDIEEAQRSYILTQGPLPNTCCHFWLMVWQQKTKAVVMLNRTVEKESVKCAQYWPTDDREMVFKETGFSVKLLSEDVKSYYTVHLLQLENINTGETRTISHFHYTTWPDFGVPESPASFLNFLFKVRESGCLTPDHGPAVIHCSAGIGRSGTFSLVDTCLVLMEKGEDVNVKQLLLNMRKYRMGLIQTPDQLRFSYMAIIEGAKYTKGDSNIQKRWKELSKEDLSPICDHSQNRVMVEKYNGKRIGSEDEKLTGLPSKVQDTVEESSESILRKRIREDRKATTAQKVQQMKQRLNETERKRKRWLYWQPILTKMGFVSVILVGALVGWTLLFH
Kind of assay: HiBiT Degradation B16F10.4 PTPN2. Format: cell-based. Particulars: 24.0 hours. A general note: The HiBiT peptide binds its large partner to form an active luciferase.

Assay [1] concerns the target T2, PTPN2 (HiBIT-PTPN2 in 293T.109 cells) (Homo sapiens, UniProt P17706).
T2 construct: expressed in transfected cells; host or cells: 293T.109 (293T WT from ATCC)
T2 sequence (P17706 1-415): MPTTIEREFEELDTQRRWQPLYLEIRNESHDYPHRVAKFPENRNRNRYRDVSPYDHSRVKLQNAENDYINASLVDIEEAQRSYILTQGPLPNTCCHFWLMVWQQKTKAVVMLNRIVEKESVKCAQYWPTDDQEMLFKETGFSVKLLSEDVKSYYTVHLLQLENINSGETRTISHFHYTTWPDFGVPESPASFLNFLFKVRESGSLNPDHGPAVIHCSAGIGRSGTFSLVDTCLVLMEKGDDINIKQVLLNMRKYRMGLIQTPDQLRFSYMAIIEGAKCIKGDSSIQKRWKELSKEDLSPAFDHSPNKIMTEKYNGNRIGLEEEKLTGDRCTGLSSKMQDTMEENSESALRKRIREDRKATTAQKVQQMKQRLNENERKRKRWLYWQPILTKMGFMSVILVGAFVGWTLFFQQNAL
Briefly: HiBiT Degradation 293T.109 PTPN2 (Nano-Glo HiBiT Lytic Assay). To be noted: 24.0 hours. Format: cell-based. In outline:
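Degradation read-out: lytic HiBiT luminescence after 24 h treatment (37 °C, 5% CO2) of 5000 293T cells per well expressing HiBiT-fused PTPN2 from an N-terminal tag. Dosing was 11 points, half-log steps down from 10 μM, in duplicate; vehicle-treated and no-reagent wells served as controls.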

On to `Cn1c(=O)n(C2CCC(=O)NC2=O)c2ccc([C@H]3CC[C@H](C(=O)Nc4cccc(CS(=O)(=O)N5CC[C@H](Nc6cccc(-c7sc(C(=O)O)c(OCC(=O)O)c7Cl)c6)CC5(C)C)c4)CC3)cc21` (stereo partly drawn) [Example 138, 3-(carboxymethoxy)-4-chloro-5-(3-(((4S)-1-((3-((1r,4S)-4-(1-(2,6-dioxopiperidin-3-yl)-3-methyl-2-oxo-2,3-dihydro-1H-benzo[d]imidazol-5-yl)cyclohexane-1-carboxamido)benzyl)sulfonyl)-2,2-dimethylpiperidin-4-yl)amino)phenyl)thiophene-2-carboxylic acid], for which the DC50 (at PTPN2 (B16F10.4 cells); in assay [1]) was < 50 nM each time.
For the compound `O=C(O)COc1c(C(=O)O)sc(-c2cccc(NC3CCN(S(=O)(=O)Cc4cccc(NC(=O)C5CCN(C(=O)CNc6cccc7c6C(=O)N(C6CCC(=O)NC6=O)C7=O)CC5)c4)CC3)c2)c1Cl` (stereo not drawn) [Example 16], the half-maximal degradation concentration (DC50) (in general, the midpoint of the concentration-degradation curve) at PTPN2 (B16F10.4 cells) was ≥ 1000 nM; in assay [1], 200 to 1000 nM.
For `CC1(C)C[C@@H](Nc2cccc(-c3sc(C(=O)O)c(OCC(=O)O)c3Cl)c2)CCN1S(=O)(=O)Cc1cccc(NC(=O)NCCCc2ccc3c4c(cccc24)C(=O)N3C2CCC(=O)NC2=O)c1` (stereo partly drawn) [Example 156, 3-(carboxymethoxy)-4-chloro-5-(3-(((4S)-1-((3-(3-(3-(1-(2,6-dioxopiperidin-3-yl)-2-oxo-1,2-dihydrobenzo[cd]indol-6-yl)propyl)ureido)benzyl)sulfonyl)-2,2-dimethylpiperidin-4-yl)amino)phenyl)thiophene-2-carboxylic acid] the same measures were < 50 nM and < 50 nM.
For `Cn1nc(C2CCC(=O)NC2=O)c2ccc(C3CCN(C(=O)Nc4cccc(CS(=O)(=O)N5CC[C@@H](Nc6cccc(-c7sc(C(=O)O)c(OCC(=O)O)c7Cl)c6)CC5(C)C)c4)CC3(F)F)cc21` (stereo partly drawn) [Example 185, 3-(carboxymethoxy)-4-chloro-5-(3-(((4R)-1-((3-(4-(3-(2,6-dioxopiperidin-3-yl)-1-methyl-1H-indazol-6-yl)-3,3-difluoropiperidine-1-carboxamido)benzyl)sulfonyl)-2,2-dimethylpiperidin-4-yl)amino)phenyl)thiophene-2-carboxylic acid] the same measures were < 50 nM and 200 to 1000 nM.
For `CC1(C)C[C@@H](Nc2cccc(-c3sc(C(=O)O)c(OCC(=O)O)c3Cl)c2)CCN1S(=O)(=O)Cc1cccc(NC(=O)[C@H]2[C@@H]3CN(C(=O)CNc4cccc5c4CN(C4CCC(=O)NC4=O)C5=O)C[C@@H]32)c1` (stereo partly drawn) [Example 98] the same measures were 200 to 1000 nM and 50 to 200 nM.
On to `Cn1c(=O)n(C2CCC(=O)NC2=O)c2ccc(C3CCN(CC(=O)Nc4cccc(CS(=O)(=O)N5CCC(Nc6cccc(-c7sc(C(=O)O)c(OCC(=O)O)c7Cl)c6)CC5)c4)CC3)cc21` (stereo not drawn) [Example 55, 3-(carboxymethoxy)-4-chloro-5-[3-[[1-[[3-[[2-[4-[1-(2,6-dioxo-3-piperidyl)-3-methyl-2-oxo-benzimidazol-5-yl]-1-piperidyl]acetyl]amino]phenyl]methylsulfonyl]-4-piperidyl]amino]phenyl]thiophene-2-carboxylic acid], for which the DC50 (at PTPN2 (B16F10.4 cells); in assay [1]) was 50 to 200 nM each time.
Regarding `CC1(C)C[C@@H](Nc2cccc(-c3sc(C(=O)O)c(OCC(=O)O)c3Cl)c2)CCN1S(=O)(=O)Cc1cccc(NC(=O)CCn2cc(CNc3cccc4c3C(=O)N(C3CCC(=O)NC3=O)C4=O)nn2)c1` (stereo partly drawn) [Example 13, 3-(carboxymethoxy)-4-chloro-5-(3-(((4S)-1-((3-(3-(4-(((2-(2,6-dioxopiperidin-3-yl)-1,3-dioxoisoindolin-4-yl)amino)methyl)-1H-1,2,3-triazol-1-yl)propanamido)benzyl)sulfonyl)-2,2-dimethylpiperidin-4-yl)amino)phenyl)thiophene-2-carboxylic acid], the DC50 (at PTPN2 (B16F10.4 cells); in assay [1]) was 200 to 1000 nM in each case.
With `Cn1c(=O)n(C2CCC(=O)NC2=O)c2ccc(C3CCN(C(=O)Nc4cccc(CS(=O)(=O)N5CC[C@H](Nc6cccc(-c7sc(C(=O)O)c(OCC(=O)O)c7Cl)c6)CC56CC6)c4)CC3)cc21` (stereo partly drawn) [Example 190, 3-(carboxymethoxy)-4-chloro-5-(3-(((7S)-4-((3-(4-(1-(2,6-dioxopiperidin-3-yl)-3-methyl-2-oxo-2,3-dihydro-1H-benzo[d]imidazol-5-yl)piperidine-1-carboxamido)benzyl)sulfonyl)-4-azaspiro[2.5]octan-7-yl)amino)phenyl)thiophene-2-carboxylic acid], the values for the DC50 (on PTPN2 (B16F10.4 cells); in assay [1]) were 50 to 200 nM and < 50 nM, respectively.
For `O=C(O)COc1c(C(=O)O)sc(-c2cccc(NC3CCN(S(=O)(=O)Cc4cccc(NC(=O)N5CCC(Oc6cccc7c6CN(C6CCC(=O)NC6=O)C7=O)CC5)c4)CC3)c2)c1Cl` (stereo not drawn) [Example 65], in that order: 200 to 1000 nM and 200 to 1000 nM.
Turning to `Cn1c(=O)n(C2CCC(=O)NC2=O)c2ccc(C3CCN(C(=O)Nc4cccc(CS(=O)(=O)N5CCC(Nc6cccc(-c7sc(C(=O)O)c(OCC(=O)O)c7Cl)c6F)CC5)c4)CC3)cc21` (stereo not drawn) [Example 123, 3-(carboxymethoxy)-4-chloro-5-[3-[[1-[[3-[[4-[1-(2,6-dioxo-3-piperidyl)-3-methyl-2-oxo-benzimidazol-5-yl]piperidine-1-carbonyl]amino]phenyl]methylsulfonyl]-4-piperidyl]amino]-2-fluoro-phenyl]thiophene-2-carboxylic acid], the DC50 (on PTPN2 (B16F10.4 cells); in assay [1]) was 50 to 200 nM in each case.
Turning to `CC1(C)C[C@@H](Nc2cccc(-c3sc(C(=O)O)c(OCC(=O)O)c3Cl)c2)CCN1S(=O)(=O)Cc1cccc(NC(=O)C2CCN(C(=O)CNc3ccc4c(c3)CN(C3CCC(=O)NC3=O)C4=O)CC2)c1` (stereo partly drawn) [Example 41, 3-(carboxymethoxy)-4-chloro-5-(3-(((4S)-1-((3-(1-((2-(2,6-dioxopiperidin-3-yl)-1-oxoisoindolin-5-yl)glycyl)piperidine-4-carboxamido)benzyl)sulfonyl)-2,2-dimethylpiperidin-4-yl)amino)phenyl)thiophene-2-carboxylic acid], the half-maximal degradation concentration (DC50) on PTPN2 (B16F10.4 cells) was ≥ 1000 nM; in assay [1] it was 50 to 200 nM.
For `Cn1c(=O)n([C@@H]2CCC(=O)NC2=O)c2ccc(C3CCN(C(=O)Nc4cccc(CS(=O)(=O)N5CC[C@H](Nc6cccc(-c7sc(C(=O)O)c(OCC(=O)O)c7Cl)c6)CC5(C)C)c4)CC3)cc21` (single isomer, unassigned) [Example 235], in that order: < 50 nM and < 50 nM.
For `CC1(C)C[C@@H](Nc2cccc(-c3sc(C(=O)O)c(OCC(=O)O)c3Cl)c2F)CCN1S(=O)(=O)Cc1ccc(F)c(NC(=O)C2CN(C(=O)CNc3cccc4c3CN(C3CCC(=O)NC3=O)C4=O)C2)c1` (stereo partly drawn) [Example 148, 3-(carboxymethoxy)-4-chloro-5-[3-[[(4S)-1-[[3-[[1-[2-[[2-(2,6-dioxo-3-piperidyl)-1-oxo-isoindolin-4-yl]amino]acetyl]azetidine-3-carbonyl]amino]-4-fluoro-phenyl]methylsulfonyl]-2,2-dimethyl-4-piperidyl]amino]-2-fluoro-phenyl]thiophene-2-carboxylic acid] the same measures were 50 to 200 nM and < 50 nM.
With `Cn1c(=O)n(C2CCC(=O)NC2=O)c2ccc(CCC(=O)Nc3cccc(CS(=O)(=O)N4CCC(Nc5cccc(-c6sc(C(=O)O)c(OCC(=O)O)c6Cl)c5)CC4)c3)cc21` (stereo not drawn) [Example 49, 3-(carboxymethoxy)-4-chloro-5-(3-((1-((3-(3-(1-(2,6-dioxopiperidin-3-yl)-3-methyl-2-oxo-2,3-dihydro-1H-benzo[d]imidazol-5-yl)propanamido)benzyl)sulfonyl)piperidin-4-yl)amino)phenyl)thiophene-2-carboxylic acid], the DC50 (at PTPN2 (B16F10.4 cells); in assay [1]) was 200 to 1000 nM in each case.
Regarding `Cn1c(=O)n(C2CCC(=O)NC2=O)c2ccc(N3CCC(CCNCCNc4cccc(CS(=O)(=O)N5CC[C@H](Nc6cccc(-c7sc(C(=O)O)c(OCC(=O)O)c7Cl)c6)CC5(C)C)c4)CC3)cc21` (stereo partly drawn) [Example 237, 3-(carboxymethoxy)-4-chloro-5-[3-[[(4S)-1-[[3-[2-[2-[1-[1-(2,6-dioxo-3-piperidyl)-3-methyl-2-oxo-benzimidazol-5-yl]-4-piperidyl]ethylamino]ethylamino]phenyl]methylsulfonyl]-2,2-dimethyl-4-piperidyl]amino]phenyl]thiophene-2-carboxylic acid], the DC50 at PTPN2 (B16F10.4 cells) was 50 to 200 nM; in assay [1], < 50 nM.
